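All cell lines were grown in 96-well plates and treated with compound for 48 hours. The concentration for 50% growth inhibition is given as GI50.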 Calls of active or inactive are those of the source. No stated cut-off is given here; in the data, active = GI50 up to about 1.1 µM and inactive = higher.

Among the test systems are NCI-H23; U-251; OVCAR-3; A498; EKVX; CAKI-1; UO-31; NCI-H522; HCT-116; NCI-H460; OVCAR-5; MCF7; SK-OV-3; A549; SW-620; RXF 393; HT-29; IGROV-1; ACHN; M14.
What all share (experiment): NCI-60 cell line screen, 48 h

Consider `Cc1c2cnccc2c(C)c2c1c1ccccc1n2CCCCCCNCc1ccccc1`, for which the GI50 is 1.91 µM (inactive) with NCI-H23; 2.05 µM (inactive) in the experiment on U-251; 1.87 µM (inactive) in the experiment with OVCAR-3; 2.11 µM (inactive) in the experiment on A498; 2.11 µM (inactive) in the experiment with EKVX; 1.89 µM (inactive) with CAKI-1. In addition, the GI50 in the experiment with UO-31 is 1.99 µM (inactive); with NCI-H522, 2.15 µM (inactive); with HCT-116 it was 0.649 µM (active); in the experiment with NCI-H460 it was 0.538 µM (active); in the experiment on OVCAR-5 it was 1.75 µM (inactive); with MCF7, 1.45 µM (inactive). For the same compound, the GI50 with SK-OV-3 is 3.8 µM (inactive); in the experiment on A549, 1.91 µM (inactive); in the experiment with SW-620 it was 0.608 µM (active); in the experiment with RXF 393, 2.04 µM (inactive); in the experiment with HT-29, 1.36 µM (inactive); in the experiment on IGROV-1, 1.8 µM (inactive).
Turning to `Cc1cnc(/C=N\NC(N)=S)c2cccc(N)c12`, the GI50 in the experiment with NCI-H23 was 0.334 µM (active); in the experiment on U-251 it was 0.604 µM (active); in the experiment on OVCAR-3, 0.426 µM (active); with A498, 10.8 µM (inactive); in the experiment on EKVX, 1.1 µM (active); in the experiment with CAKI-1, 0.516 µM (active). Besides, the GI50 in the experiment on UO-31 was 0.52 µM (active); in the experiment with NCI-H522, 0.871 µM (active); with HCT-116, 0.724 µM (active); in the experiment on NCI-H460 it was 0.538 µM (active); with ACHN, 0.387 µM (active); in the experiment on OVCAR-5, 5.46 µM (inactive). For the same compound, the GI50 in the experiment with MCF7 was 0.526 µM (active); in the experiment on SK-OV-3, 2.59 µM (inactive); with A549, 2.58 µM (inactive); with SW-620, 3.01 µM (inactive); in the experiment on RXF 393 it was 0.728 µM (active); in the experiment with HT-29 it was 0.711 µM (active). Also, the GI50 in the experiment with IGROV-1 was 1.75 µM (inactive).
In the case of `COC(OC)C1OC(CO)C(n2cc(F)c(=O)[nH]c2=O)C1O` (centres undefined), the GI50 in the experiment with NCI-H23, with U-251, in the experiment with OVCAR-3, in the experiment with A498, with EKVX and in the experiment with CAKI-1 was > 100 µM (inactive) throughout. For the same compound, the GI50 in the experiment with UO-31, in the experiment with NCI-H522, in the experiment on HCT-116, with NCI-H460, in the experiment on ACHN and with M14 was > 100 µM (inactive) each time. Further, the GI50 in the experiment on OVCAR-5, in the experiment on MCF7, with SK-OV-3, in the experiment on A549, in the experiment on SW-620 and in the experiment with RXF 393 was > 100 µM (inactive) in each case. Further, the GI50 in the experiment on HT-29 and in the experiment with IGROV-1 was > 100 µM (inactive) throughout.
On to `COP(=O)(OC)/C(=C/c1cn(C(C)=O)c2ccccc12)NC(C)=O`, for which the GI50 in the experiment with NCI-H23 is 37.7 µM (inactive); in the experiment on U-251, 33.2 µM (inactive); with OVCAR-3, 21.3 µM (inactive); in the experiment with A498 it was 16.6 µM (inactive); in the experiment with CAKI-1, 40.9 µM (inactive); with NCI-H522, > 100 µM (inactive). The GI50 with HCT-116 is 26.4 µM (inactive); with NCI-H460 it was 52.5 µM (inactive); in the experiment with ACHN, 53 µM (inactive); in the experiment on M14, 41.8 µM (inactive); with OVCAR-5 it was > 100 µM (inactive); in the experiment on MCF7, 8.91 µM (inactive). Besides, the GI50 in the experiment on SK-OV-3 is > 100 µM (inactive); in the experiment with A549 it was > 100 µM (inactive); in the experiment with SW-620, 18.5 µM (inactive); in the experiment on HT-29, 41.6 µM (inactive); in the experiment on IGROV-1 it was 54.8 µM (inactive).
Turning to `COc1nc2ccc(CNc3ccc(C(=O)NC(CCC(=O)O)C(=O)O)cc3)cc2nc1OC` (centres undefined), the GI50 in the experiment on NCI-H23, with U-251, in the experiment on OVCAR-3, in the experiment with A498, in the experiment on EKVX and in the experiment on UO-31 was > 100 µM (inactive) each time. Further, the GI50 with NCI-H522, with NCI-H460, with ACHN, in the experiment with M14, in the experiment on OVCAR-5 and in the experiment with MCF7 was > 100 µM (inactive) each time. For the same compound, the GI50 in the experiment on SK-OV-3 was > 100 µM (inactive); in the experiment with A549, > 100 µM (inactive); in the experiment with SW-620, 39.6 µM (inactive); with RXF 393, > 100 µM (inactive); in the experiment on HT-29, > 100 µM (inactive); in the experiment with IGROV-1, > 100 µM (inactive).
`CC(=O)OCC1OC(n2c(-c3ccc(C)cc3)cc(-c3ccco3)c(C#N)c2=S)C(OC(C)=O)C(OC(C)=O)C1OC(C)=O` (centres undefined): the GI50 is 48 µM (inactive) with NCI-H23; 33.8 µM (inactive) in the experiment on U-251; > 100 µM (inactive) in the experiment with OVCAR-3; 61.7 µM (inactive) with A498; > 100 µM (inactive) with EKVX; > 100 µM (inactive) with CAKI-1. Further, the GI50 with UO-31 was 28.9 µM (inactive); with NCI-H522, 50.4 µM (inactive); in the experiment with HCT-116, 29 µM (inactive); in the experiment on NCI-H460, 24.7 µM (inactive); with ACHN, 75.5 µM (inactive); in the experiment on M14, 83.9 µM (inactive). Besides, the GI50 is > 100 µM (inactive) with OVCAR-5; 40.6 µM (inactive) with MCF7; 29.9 µM (inactive) in the experiment with SK-OV-3; 69.5 µM (inactive) in the experiment with A549; > 100 µM (inactive) with SW-620; 40.6 µM (inactive) in the experiment on RXF 393. Moreover, the results for the GI50 with HT-29 and in the experiment with IGROV-1 were > 100 µM (inactive) and 98.4 µM (inactive), respectively.
As to `c1ccc(/N=C2\SC3=NCCN3\C2=N/c2ccccc2)cc1`, the GI50 is 20.1 µM (inactive) in the experiment on NCI-H23; 17.7 µM (inactive) in the experiment with U-251; 18.1 µM (inactive) in the experiment on OVCAR-3; 19.8 µM (inactive) with A498; 17.9 µM (inactive) in the experiment on CAKI-1; 13.5 µM (inactive) in the experiment on UO-31. The GI50 in the experiment on NCI-H522 was 13.6 µM (inactive); in the experiment on HCT-116, 13.6 µM (inactive); in the experiment with NCI-H460, 20.7 µM (inactive); with M14, 17.5 µM (inactive); in the experiment on OVCAR-5, 20.1 µM (inactive); in the experiment on MCF7, 10.7 µM (inactive). The GI50 was 34 µM (inactive) in the experiment on SK-OV-3, 15.2 µM (inactive) with RXF 393, 16.4 µM (inactive) in the experiment with HT-29 and > 10 µM (inactive) in the experiment on IGROV-1.
Consider `Cc1ccc(S(N)(C(=O)Nc2cccc3ccccc23)[N+](=O)[O-])cc1` (centres undefined), for which the GI50 in the experiment with NCI-H23 was > 100 µM (inactive); with U-251, > 100 µM (inactive); in the experiment with OVCAR-3 it was 61.8 µM (inactive); with A498, > 100 µM (inactive); with CAKI-1, > 100 µM (inactive); in the experiment on UO-31 it was 35.7 µM (inactive). For the same compound, the GI50 in the experiment with HCT-116 was 66.7 µM (inactive); in the experiment on NCI-H460, > 100 µM (inactive); in the experiment on M14 it was > 100 µM (inactive); in the experiment on OVCAR-5 it was > 100 µM (inactive); in the experiment with MCF7, 59.2 µM (inactive); in the experiment with SK-OV-3, > 100 µM (inactive). In addition, the GI50 in the experiment on SW-620, with RXF 393, in the experiment on HT-29 and with IGROV-1 was > 100 µM (inactive) throughout.

For the origin of these results see ChEMBL document CHEMBL1201862, “PubChem BioAssay data set” (2004).
